Experiments:
[1] = system: phospho-FMS in THP-1 cells; experiment: cells; details: Homo sapiens, THP-1, read-out: pFMS inhibition in THP-1 cells
Procedure: In a separate 96 well black clear bottom plate, one hundred and fifty thousand THP-1 cells were added per well in 100 μL in assay medium. Fifty microliters of diluted compound was then added to the cells. […] Lysates were prepared and used to perform the phospho-FMS ELISA as described by the manufacturer (catalog #DYC3268, R & D Systems, Minneapolis, Minn.). GraphPad Prism was used to calculate IC50 values obtained from data generated from the ELISA assay.

[2] = molecular target: unphosphorylated PDGFRβ kinase (uPDGFRβ, Seq. ID No. 3) (Homo sapiens, UniProt P09619); experiment: biochemical; details: uPDGFRb, enzymatic assay, ATP 500 μM
[3] = molecular target: T1, unphosphorylated c-FMS kinase (uFMS, Seq. ID no. 1) (Homo sapiens, UniProt P07333); experiment: biochemical; details: uFMS, enzymatic assay, ATP 500 μM
T1 sequence (P07333 538-972): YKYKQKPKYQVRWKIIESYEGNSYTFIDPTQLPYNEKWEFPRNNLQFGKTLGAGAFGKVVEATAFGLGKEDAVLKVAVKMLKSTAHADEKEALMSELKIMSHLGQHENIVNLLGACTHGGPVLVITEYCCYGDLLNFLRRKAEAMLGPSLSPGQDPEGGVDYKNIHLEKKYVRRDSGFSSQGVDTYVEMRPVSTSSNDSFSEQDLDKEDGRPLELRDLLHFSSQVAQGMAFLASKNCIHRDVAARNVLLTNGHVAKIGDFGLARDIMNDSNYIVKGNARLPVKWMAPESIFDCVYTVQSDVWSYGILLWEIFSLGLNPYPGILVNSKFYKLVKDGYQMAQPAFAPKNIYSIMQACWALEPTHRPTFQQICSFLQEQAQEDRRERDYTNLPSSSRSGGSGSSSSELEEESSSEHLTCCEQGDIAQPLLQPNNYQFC
Procedure: In this assay, the oxidation of NADH (thus the decrease at A340 nm) was continuously monitored spectrophometrically. The reaction mixture (100 μL) contained FMS (purchased from Millipore) (10 nM), polyE4Y (1 mg/mL), MgCl2 (10 mM), pyruvate kinase (4 units), lactate dehydrogenase (0.7 units), phosphoenol pyruvate (1 mM), NADH (0.28 mM) and ATP (500 μM) in 90 mM Tris buffer containing 0.2% octyl-glucoside and 1% DMSO, pH 7.5. The inhibition reaction was started by mixing serial diluted test compound with the above reaction mixture. The absorption at 340 nm was monitored continuously for 4 hours at 30° C. on Synergy 2 plate reader. The reaction rate was calculated using the 3 to 4 h time frame. Percent inhibition was obtained by comparison of reaction rate with that of a control (i.e. in the absence of test compound). IC50 values were calculated from a series of percent inhibition values determined at a range of inhibitor concentrations using software routines as implemented in the GraphPad Prism software package.

[4] = molecular target: unphosphorylated c-KIT kinase (uKIT, Seq. ID no. 2) (Homo sapiens, UniProt P10721); experiment: biochemical; details: uKIT, enzymatic assay, ATP 2000 μM
unphosphorylated c-KIT kinase (uKIT, Seq. ID no. 2), sequence (P10721 with tags, fused parts or gaps): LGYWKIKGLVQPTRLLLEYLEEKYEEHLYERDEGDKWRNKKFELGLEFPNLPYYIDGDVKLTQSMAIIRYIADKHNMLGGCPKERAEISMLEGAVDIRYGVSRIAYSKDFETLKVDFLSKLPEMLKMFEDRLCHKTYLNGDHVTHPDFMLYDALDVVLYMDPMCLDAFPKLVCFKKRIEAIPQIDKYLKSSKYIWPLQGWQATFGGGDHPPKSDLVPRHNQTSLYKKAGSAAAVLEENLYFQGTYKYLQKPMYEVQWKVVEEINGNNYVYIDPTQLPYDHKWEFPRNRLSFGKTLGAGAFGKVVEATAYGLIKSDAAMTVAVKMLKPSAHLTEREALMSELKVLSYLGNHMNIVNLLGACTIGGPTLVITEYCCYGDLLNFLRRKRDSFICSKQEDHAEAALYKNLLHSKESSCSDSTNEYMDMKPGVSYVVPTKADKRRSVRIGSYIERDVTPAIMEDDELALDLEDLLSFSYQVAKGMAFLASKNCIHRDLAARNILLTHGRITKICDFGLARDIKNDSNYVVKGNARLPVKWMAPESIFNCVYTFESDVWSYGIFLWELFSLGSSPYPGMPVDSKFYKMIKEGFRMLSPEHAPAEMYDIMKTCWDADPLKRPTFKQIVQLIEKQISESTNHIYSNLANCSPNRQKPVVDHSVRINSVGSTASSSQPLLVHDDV
Procedure: uKit kinase (Seq. ID No. 2) Assay
In this assay, the oxidation of NADH (thus the decrease at A340 nm) was continuously monitored spectrophometrically. […] The inhibition reaction was started by mixing serial diluted test compound with the above reaction mixture. The absorption at 340 nm was monitored continuously for 4 hours at 30° C. on Synergy 2 plate reader (BioTech).

osteoclast precursors = experiment: cells; type: cell-based; details: read-out: Osteoclast assay
M-NFS-60 cells = experiment: cells; details: 67 h, read-out: M-NFS-60 cell proliferation
Procedure: M-NFS-6 Cell Proliferation Assay
A serial dilution of test compound was dispensed into a 384-well black clear bottom plate (Corning, Corning, N.Y.). Two thousand five hundred cells were added per well in 50 μL complete growth medium. […] IC50 values were calculated from a series of percent inhibition values determined at a range of inhibitor concentrations using software routines as implemented in the GraphPad Prism software package.

unphosphorylated PDGFRβ kinase (uPDGFRβ, Seq. ID No. 3), sequence (P09619 557-1106): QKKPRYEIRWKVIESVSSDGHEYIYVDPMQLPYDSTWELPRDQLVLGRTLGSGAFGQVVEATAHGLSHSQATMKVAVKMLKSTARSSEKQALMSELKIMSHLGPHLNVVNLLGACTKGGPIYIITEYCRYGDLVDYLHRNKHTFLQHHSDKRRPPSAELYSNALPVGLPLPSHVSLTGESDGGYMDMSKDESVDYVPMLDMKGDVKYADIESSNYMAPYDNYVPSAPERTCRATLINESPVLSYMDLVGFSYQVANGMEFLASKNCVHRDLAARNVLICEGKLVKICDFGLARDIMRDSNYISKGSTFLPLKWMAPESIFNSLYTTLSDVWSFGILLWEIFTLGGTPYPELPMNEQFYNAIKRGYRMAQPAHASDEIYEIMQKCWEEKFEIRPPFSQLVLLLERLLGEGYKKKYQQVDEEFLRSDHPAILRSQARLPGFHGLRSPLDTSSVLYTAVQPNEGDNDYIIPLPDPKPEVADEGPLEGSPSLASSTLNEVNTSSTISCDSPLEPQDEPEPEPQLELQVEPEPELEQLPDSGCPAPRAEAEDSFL

Compound | IC50 [1] | IC50 [2] | IC50 [3] | IC50 [4] | IC50 (osteoclast precursors) | IC50 (M-NFS-60 cells)
Cn1cnc(-c2cc(Oc3ccc(NC(=O)NC(=O)C(C)(C)C)nc3)ccn2)c1 [Example 104, N-((5-((2-(1-methyl-1H-imidazol-4-yl)pyridin-4-yl)oxy)pyridin-2-yl)carbamoyl)pivalamide] | < 10 nM | > 1000 nM | < 10 nM | > 1000 nM | < 10 nM | < 10 nM
Cc1nc(NC(=O)NC(=O)C(C)(C)C)ccc1Oc1ccnc(-c2ccc(C#N)nc2)c1 [Example 107, N-((5-((6′-cyano-[2,3′-bipyridin]-4-yl)oxy)-6-methylpyridin-2-yl)carbamoyl)pivalamide] | 10 to 100 nM | > 1000 nM | 10 to 100 nM | > 1000 nM | 10 to 100 nM | 100 to 1000 nM
CCOC(C)(C)C(=O)NC(=O)Nc1ccc(Oc2ccnc(-c3cnn(C)c3)c2)cn1 [Example 123, 2-ethoxy-2-methyl-N-((5-((2-(1-methyl-1H-pyrazol-4-yl)pyridin-4-yl)oxy)pyridin-2-yl)carbamoyl)propanamide] | 10 to 100 nM | 100 to 1000 nM | < 10 nM | 100 to 1000 nM | < 10 nM | 10 to 100 nM
CCOC(C)(C)C(=O)NC(=O)Nc1ccc(Oc2ccnc(-c3cnc(C)s3)c2)cn1 [Example 124, 2-ethoxy-2-methyl-N-((5-((2-(2-methylthiazol-5-yl)pyridin-4-yl)oxy)pyridin-2-yl)carbamoyl)propanamide] | 10 to 100 nM | > 1000 nM | < 10 nM | > 1000 nM | 10 to 100 nM | 10 to 100 nM
CC(C)(C)C(=O)NC(=O)Nc1ccc(Oc2ccnc(-c3cncs3)c2)cn1 [Example 125, N-((5-((2-(thiazol-5-yl)pyridin-4-yl)oxy)pyridin-2-yl)carbamoyl)pivalamide] | 10 to 100 nM | > 1000 nM | < 10 nM | > 1000 nM | < 10 nM | 100 to 1000 nM
COC1(C(=O)NC(=O)Nc2ccc(Oc3ccnc(-c4ccc(C)nc4)c3)cn2)CC1 [Example 126, 1-methoxy-N-((5-((6′-methyl-[2,3′-bipyridin]-4-yl)oxy)pyridin-2-yl)carbamoyl)cyclopropanecarboxamide] | 10 to 100 nM | 10 to 100 nM | < 10 nM | 100 to 1000 nM | < 10 nM | 10 to 100 nM
CCOC(C)(C)C(=O)NC(=O)Nc1ccc(Oc2ccnc(-c3cnn(C)c3)c2)c(C)n1 [Example 127, 2-ethoxy-2-methyl-N-((6-methyl-5-((2-(1-methyl-1H-pyrazol-4-yl)pyridin-4-yl)oxy)pyridin-2-yl)carbamoyl)propanamide] | 10 to 100 nM | 100 to 1000 nM | < 10 nM | 100 to 1000 nM | < 10 nM | 10 to 100 nM
COC(C)(C)C(=O)NC(=O)Nc1ccc(Oc2ccnc(-n3cnc(C)c3)c2)cn1 [Example 130, 2-methoxy-2-methyl-N-((5-((2-(4-methyl-1H-imidazol-1-yl)pyridin-4-yl)oxy)pyridin-2-yl)carbamoyl)propanamide] | < 10 nM | > 1000 nM | 10 to 100 nM | > 1000 nM | 10 to 100 nM | 10 to 100 nM
Cc1nc(NC(=O)NC(=O)C(C)(C)C)ccc1Oc1ccnc(-c2cncs2)c1 [Example 131, N-((6-methyl-5-((2-(thiazol-5-yl)pyridin-4-yl)oxy)pyridin-2-yl)carbamoyl)pivalamide] | < 10 nM | > 1000 nM | < 10 nM | > 1000 nM | 10 to 100 nM | 10 to 100 nM
COC(C)(C)C(=O)NC(=O)Nc1ccc(Oc2ccnc(-c3cn(C)cn3)c2)cn1 [Example 132, 2-methoxy-2-methyl-N-((5-((2-(1-methyl-1H-imidazol-4-yl)pyridin-4-yl)oxy)pyridin-2-yl)carbamoyl)propanamide] | < 10 nM | 100 to 1000 nM | < 10 nM | > 1000 nM | < 10 nM | 10 to 100 nM
Cc1cn(-c2cc(Oc3ccc(NC(=O)NC(=O)C4(C)CC4)nc3C)ccn2)cn1 [Example 135, 1-methyl-N-((6-methyl-5-((2-(4-methyl-1H-imidazol-1-yl)pyridin-4-yl)oxy)pyridin-2-yl)carbamoyl)cyclopropanecarboxamide] | 10 to 100 nM | > 1000 nM | 10 to 100 nM | > 1000 nM | < 10 nM | 10 to 100 nM
COC(C)(C)C(=O)NC(=O)Nc1cc(C)c(Oc2ccnc(-c3cnn(C)c3)c2)c(C)n1 [Example 140, N-((4,6-dimethyl-5-((2-(1-methyl-1H-pyrazol-4-yl)pyridin-4-yl)oxy)pyridin-2-yl)carbamoyl)-2-methoxy-2-methylpropanamide] | < 10 nM | 100 to 1000 nM | < 10 nM | 10 to 100 nM | 10 to 100 nM | < 10 nM
COC1(C(=O)NC(=O)Nc2ccc(Oc3ccnc(-n4cnc(C)c4)c3)cn2)CCCC1 [Example 154, 1-methoxy-N-((5-((2-(4-methyl-1H-imidazol-1-yl)pyridin-4-yl)oxy)pyridin-2-yl)carbamoyl)cyclopentanecarboxamide] | 10 to 100 nM | 100 to 1000 nM | < 10 nM | > 1000 nM | 10 to 100 nM | 10 to 100 nM
Cc1ncc(-c2cc(Oc3ccc(NC(=O)NC(=O)C4(C)CCOCC4)nc3)ccn2)s1 [Example 158, 4-methyl-N-((5-((2-(2-methylthiazol-5-yl)pyridin-4-yl)oxy)pyridin-2-yl)carbamoyl)tetrahydro-2H-pyran-4-carboxamide] | 10 to 100 nM | 100 to 1000 nM | 10 to 100 nM | > 1000 nM | 10 to 100 nM | 10 to 100 nM
COC(C)(C)C(=O)NC(=O)Nc1ccc(Oc2ccnc(-c3cnc(C)o3)c2)cn1 [Example 159, 2-methoxy-2-methyl-N-((5-((2-(2-methyloxazol-5-yl)pyridin-4-yl)oxy)pyridin-2-yl)carbamoyl)propanamide] | < 10 nM | > 1000 nM | 10 to 100 nM | > 1000 nM | 10 to 100 nM | 10 to 100 nM
COC(C)(C)C(=O)NC(=O)Nc1ccc(Oc2ccnc(-c3ccnc(C)c3)c2)cn1 [Example 160, 2-methoxy-2-methyl-N-((5-((2′-methyl-[2,4′-bipyridin]-4-yl)oxy)pyridin-2-yl)carbamoyl)propanamide] | < 10 nM | > 1000 nM | < 10 nM | > 1000 nM | 10 to 100 nM | < 10 nM
CCOC(C)(C)C(=O)NC(=O)Nc1ccc(Oc2ccnc(-c3ccnc(C)c3)c2)cn1 [Example 161, 2-ethoxy-2-methyl-N-((5-((2′-methyl-[2,4′-bipyridin]-4-yl)oxy)pyridin-2-yl)carbamoyl)propanamide] | 10 to 100 nM | > 1000 nM | < 10 nM | > 1000 nM | 10 to 100 nM | 10 to 100 nM
COC(C)(C)C(=O)NC(=O)Nc1cc(C)c(Oc2ccnc(-n3cnc(C)c3)c2)cn1 [Example 164, 2-methoxy-2-methyl-N-((4-methyl-5-((2-(4-methyl-1H-imidazol-1-yl)pyridin-4-yl)oxy)pyridin-2-yl)carbamoyl)propanamide] | < 10 nM | > 1000 nM | < 10 nM | > 1000 nM | 10 to 100 nM | < 10 nM
Cc1cc(NC(=O)NC(=O)C2(C)CCOCC2)nc(C)c1Oc1ccnc(-c2cnn(C)c2)c1 [Example 165, N-((4,6-dimethyl-5-((2-(1-methyl-1H-pyrazol-4-yl)pyridin-4-yl)oxy)pyridin-2-yl)carbamoyl)-4-methyltetrahydro-2H-pyran-4-carboxamide] | 10 to 100 nM | 10 to 100 nM | < 10 nM | 100 to 1000 nM | 10 to 100 nM | 10 to 100 nM
CCc1nc(NC(=O)NC(=O)C2(C)CCOCC2)ccc1Oc1ccnc(-c2cnn(C)c2)c1 [Example 167, N-((6-ethyl-5-((2-(1-methyl-1H-pyrazol-4-yl)pyridin-4-yl)oxy)pyridin-2-yl)carbamoyl)-4-methyltetrahydro-2H-pyran-4-carboxamide] | 10 to 100 nM | > 1000 nM | 10 to 100 nM | > 1000 nM | 100 to 1000 nM | 100 to 1000 nM
CC(C)c1nc(-c2cc(Oc3ccc(NC(=O)NC(=O)C(C)(C)C)nc3)ccn2)c[nH]1 [Example 169, N-((5-((2-(2-isopropyl-1H-imidazol-4-yl)pyridin-4-yl)oxy)pyridin-2-yl)carbamoyl)pivalamide] | < 10 nM | > 1000 nM | < 10 nM | > 1000 nM | 10 to 100 nM | 10 to 100 nM
